Laboratory results as given in ChEMBL document CHEMBL1201862, “PubChem BioAssay data set” (2004).
Calls of active or inactive are those of the source.

What was measured:
[1] = biological target: Bifunctional protein GlmU (Mycobacterium tuberculosis, UniProt P9WMN3); assay: Inhibitors of Mycobacterial Glucosamine-1-phosphate acetyl transferase (GlmU). Secondary screen.; design: species or system Mycobacterium tuberculosis H37Rv
[2] = biological target: T1, Replicative DNA helicase DnaB (Mycobacterium tuberculosis, UniProt P9WMR3); assay: DnaB intein splicing inhibitors, dose response, biochemical, cell-free fluorescence (AID 449749); type: functional
T1 sequence (P9WMR3 whole entry): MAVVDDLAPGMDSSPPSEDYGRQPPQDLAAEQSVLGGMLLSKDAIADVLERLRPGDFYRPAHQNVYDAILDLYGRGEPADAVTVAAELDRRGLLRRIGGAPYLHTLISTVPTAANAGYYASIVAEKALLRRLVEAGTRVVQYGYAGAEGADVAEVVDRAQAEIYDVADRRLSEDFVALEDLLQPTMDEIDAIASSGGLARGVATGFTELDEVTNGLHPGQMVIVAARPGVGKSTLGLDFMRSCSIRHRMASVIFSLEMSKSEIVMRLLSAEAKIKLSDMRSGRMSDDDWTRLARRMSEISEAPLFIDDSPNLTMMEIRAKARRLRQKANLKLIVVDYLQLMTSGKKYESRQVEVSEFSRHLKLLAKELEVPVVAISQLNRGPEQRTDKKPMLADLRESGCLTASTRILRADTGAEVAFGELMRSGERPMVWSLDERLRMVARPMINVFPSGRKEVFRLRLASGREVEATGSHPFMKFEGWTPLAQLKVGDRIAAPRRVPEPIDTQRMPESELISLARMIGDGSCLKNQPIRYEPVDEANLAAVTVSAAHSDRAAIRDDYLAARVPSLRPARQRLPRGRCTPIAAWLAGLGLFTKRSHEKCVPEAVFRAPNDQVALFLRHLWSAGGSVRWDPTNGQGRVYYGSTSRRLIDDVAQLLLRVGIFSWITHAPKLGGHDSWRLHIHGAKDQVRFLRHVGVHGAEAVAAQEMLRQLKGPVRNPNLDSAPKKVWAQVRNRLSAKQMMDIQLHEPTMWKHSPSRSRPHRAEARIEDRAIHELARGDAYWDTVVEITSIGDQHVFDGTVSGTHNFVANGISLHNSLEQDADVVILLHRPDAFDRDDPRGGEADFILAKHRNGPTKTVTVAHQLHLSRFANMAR

Genome polyprotein = Genome polyprotein (dengue virus type 2, UniProt P29990); assay: flavivirus cap methylation enzyme inhibition – biochemical, confirmation dose response, primary screen (AID 588689); type: functional
Sequence of Genome polyprotein (P29990 2492-3391 limits assumed): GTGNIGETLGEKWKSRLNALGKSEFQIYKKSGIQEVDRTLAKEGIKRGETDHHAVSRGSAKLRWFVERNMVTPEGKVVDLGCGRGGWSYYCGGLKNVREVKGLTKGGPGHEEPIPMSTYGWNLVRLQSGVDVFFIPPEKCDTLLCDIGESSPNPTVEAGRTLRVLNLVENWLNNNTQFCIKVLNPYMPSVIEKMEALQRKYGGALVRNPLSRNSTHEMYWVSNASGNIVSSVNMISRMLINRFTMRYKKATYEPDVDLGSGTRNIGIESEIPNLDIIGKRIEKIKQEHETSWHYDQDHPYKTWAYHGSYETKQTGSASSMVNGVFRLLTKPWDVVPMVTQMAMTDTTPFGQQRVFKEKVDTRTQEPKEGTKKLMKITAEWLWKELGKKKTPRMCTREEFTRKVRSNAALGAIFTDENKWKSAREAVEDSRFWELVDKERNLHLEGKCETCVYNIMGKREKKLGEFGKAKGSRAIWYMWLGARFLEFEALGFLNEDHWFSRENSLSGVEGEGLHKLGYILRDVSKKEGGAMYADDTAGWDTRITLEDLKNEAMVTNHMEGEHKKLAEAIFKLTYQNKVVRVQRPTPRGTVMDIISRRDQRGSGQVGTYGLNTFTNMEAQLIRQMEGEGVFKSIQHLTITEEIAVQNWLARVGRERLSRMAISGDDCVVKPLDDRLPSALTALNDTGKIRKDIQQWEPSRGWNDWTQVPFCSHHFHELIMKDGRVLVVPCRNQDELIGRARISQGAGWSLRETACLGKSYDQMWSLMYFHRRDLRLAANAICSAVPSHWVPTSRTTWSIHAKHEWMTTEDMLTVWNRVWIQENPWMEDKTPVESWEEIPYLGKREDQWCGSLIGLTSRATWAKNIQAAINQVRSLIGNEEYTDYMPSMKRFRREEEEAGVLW

Protein RecA = biological target: T2, Protein RecA (Mycobacterium tuberculosis, UniProt P9WHJ3); assay: Fluorescence Cell-Free Homogeneous Dose Retest to Identify Inhibitors of RecA-Intein Splicing Activity. [Related pubchem assays (depositor defined):AID2097, AID2223, AID489010, AID492950]; type: functional
T2 sequence (P9WHJ3 whole entry): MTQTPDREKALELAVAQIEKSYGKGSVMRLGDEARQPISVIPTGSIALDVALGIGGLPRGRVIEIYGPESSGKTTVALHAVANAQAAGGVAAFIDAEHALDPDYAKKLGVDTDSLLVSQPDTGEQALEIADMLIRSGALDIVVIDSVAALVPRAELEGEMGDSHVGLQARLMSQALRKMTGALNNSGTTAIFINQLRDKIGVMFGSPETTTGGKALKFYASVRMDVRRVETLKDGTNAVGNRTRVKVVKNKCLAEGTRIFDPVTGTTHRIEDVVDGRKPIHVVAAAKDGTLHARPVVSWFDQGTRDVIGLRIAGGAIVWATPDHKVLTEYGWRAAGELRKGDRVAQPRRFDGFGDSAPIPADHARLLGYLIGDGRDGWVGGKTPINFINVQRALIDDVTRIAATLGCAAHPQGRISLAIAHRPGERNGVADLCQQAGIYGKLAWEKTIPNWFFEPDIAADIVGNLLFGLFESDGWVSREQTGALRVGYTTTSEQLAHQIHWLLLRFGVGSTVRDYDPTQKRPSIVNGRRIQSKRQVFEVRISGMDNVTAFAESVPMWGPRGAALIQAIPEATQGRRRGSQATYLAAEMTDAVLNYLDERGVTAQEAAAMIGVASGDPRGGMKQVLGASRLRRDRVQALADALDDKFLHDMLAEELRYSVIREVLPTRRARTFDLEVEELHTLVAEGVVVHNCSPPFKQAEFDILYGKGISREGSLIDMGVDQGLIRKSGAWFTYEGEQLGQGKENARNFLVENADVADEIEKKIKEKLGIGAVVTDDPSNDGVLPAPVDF

Aminopeptidase N = biological target: T3, Aminopeptidase N (Plasmodium falciparum FcB1/Columbia, UniProt O96935); assay: malaria alanyl aminopeptidase activity blockers – biochemical, fluorogenic H-Leu-NHMec substrate, 1536-well (AID 1445); design: species or system Plasmodium falciparum 3D7, 3D7
T3 sequence (O96935 whole entry): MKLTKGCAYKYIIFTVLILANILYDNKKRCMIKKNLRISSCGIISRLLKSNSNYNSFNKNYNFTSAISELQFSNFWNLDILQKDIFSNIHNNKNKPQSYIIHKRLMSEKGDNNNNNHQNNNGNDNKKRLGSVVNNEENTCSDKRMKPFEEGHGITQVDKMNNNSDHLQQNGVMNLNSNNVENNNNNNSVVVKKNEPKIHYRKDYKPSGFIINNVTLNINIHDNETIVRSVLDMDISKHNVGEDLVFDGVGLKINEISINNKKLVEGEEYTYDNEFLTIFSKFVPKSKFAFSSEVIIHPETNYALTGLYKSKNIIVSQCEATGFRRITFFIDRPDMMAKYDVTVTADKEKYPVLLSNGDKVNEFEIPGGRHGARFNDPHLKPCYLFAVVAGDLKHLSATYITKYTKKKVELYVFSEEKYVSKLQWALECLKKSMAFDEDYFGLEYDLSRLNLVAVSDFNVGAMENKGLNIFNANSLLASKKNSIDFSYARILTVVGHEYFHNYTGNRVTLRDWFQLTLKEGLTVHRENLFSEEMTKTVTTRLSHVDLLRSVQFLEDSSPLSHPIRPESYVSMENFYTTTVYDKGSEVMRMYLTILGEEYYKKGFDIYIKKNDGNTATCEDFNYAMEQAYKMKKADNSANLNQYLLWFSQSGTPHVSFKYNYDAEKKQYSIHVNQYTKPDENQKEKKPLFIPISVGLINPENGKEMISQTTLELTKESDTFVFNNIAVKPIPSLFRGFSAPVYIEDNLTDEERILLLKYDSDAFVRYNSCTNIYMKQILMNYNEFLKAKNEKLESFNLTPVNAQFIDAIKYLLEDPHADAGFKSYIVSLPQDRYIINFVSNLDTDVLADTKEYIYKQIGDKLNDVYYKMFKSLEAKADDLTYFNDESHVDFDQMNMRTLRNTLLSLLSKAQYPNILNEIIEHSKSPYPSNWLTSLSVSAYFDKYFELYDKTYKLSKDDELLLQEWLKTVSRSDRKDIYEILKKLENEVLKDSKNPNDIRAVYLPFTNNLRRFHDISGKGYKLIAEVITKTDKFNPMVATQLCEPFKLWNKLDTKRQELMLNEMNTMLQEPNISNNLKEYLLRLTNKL

NS3 = NS3 (Hepatitis C virus, UniProt A3EZJ3); assay: NS3h DNA-binding inhibition IC50 – biochemical, fluorescence polarization, ChemBridge library, dose response (AID 743264)
[3] = biological target: T4, RNA-binding protein pos-1 (Caenorhabditis elegans, UniProt G5EF15); assay: disruptors of C. elegans POS-1 RNA interaction – biochemical, fluorescence polarization, dose response (AID 1964);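 also: purified POS-1 fused to maltose binding protein made in E. coli; potency of compounds blocking POS-1 binding to fluorescent RNA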
T4 sequence (G5EF15 whole entry): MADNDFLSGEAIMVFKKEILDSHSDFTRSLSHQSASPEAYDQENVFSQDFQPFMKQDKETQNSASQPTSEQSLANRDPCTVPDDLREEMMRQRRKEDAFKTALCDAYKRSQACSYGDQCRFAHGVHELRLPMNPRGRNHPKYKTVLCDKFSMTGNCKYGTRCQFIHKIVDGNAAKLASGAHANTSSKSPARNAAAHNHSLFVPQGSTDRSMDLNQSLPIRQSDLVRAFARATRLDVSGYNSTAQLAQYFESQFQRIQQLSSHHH

Estrogen receptor = biological target: T5, Estrogen receptor (Homo sapiens, UniProt P03372);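 also: potency for inhibiting coactivator peptide recruitment to the receptor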
T5 sequence (P03372 whole entry): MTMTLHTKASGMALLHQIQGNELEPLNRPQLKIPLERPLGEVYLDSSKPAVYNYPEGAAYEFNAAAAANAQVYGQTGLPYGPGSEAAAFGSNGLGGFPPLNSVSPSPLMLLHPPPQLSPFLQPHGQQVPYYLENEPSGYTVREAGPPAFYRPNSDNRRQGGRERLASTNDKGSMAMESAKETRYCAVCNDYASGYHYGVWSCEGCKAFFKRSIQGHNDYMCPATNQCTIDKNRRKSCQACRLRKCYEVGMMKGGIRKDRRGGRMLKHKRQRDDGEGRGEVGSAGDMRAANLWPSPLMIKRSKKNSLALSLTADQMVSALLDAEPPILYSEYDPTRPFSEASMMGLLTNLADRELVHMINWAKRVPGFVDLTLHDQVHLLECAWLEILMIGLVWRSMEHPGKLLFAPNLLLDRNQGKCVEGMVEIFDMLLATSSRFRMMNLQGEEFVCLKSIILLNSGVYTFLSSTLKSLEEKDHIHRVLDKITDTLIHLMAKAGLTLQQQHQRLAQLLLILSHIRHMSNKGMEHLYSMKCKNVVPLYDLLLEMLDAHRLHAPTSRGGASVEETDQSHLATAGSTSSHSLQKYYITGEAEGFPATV

[4] = biological target: T6, Zinc finger protein mex-5 (Caenorhabditis elegans, UniProt Q9XUB2); assay: potency of MEX-5 RNA-binding blockers – biochemical, C. elegans, fluorescence polarization, dose response (AID 1960)
T6 sequence (Q9XUB2 whole entry): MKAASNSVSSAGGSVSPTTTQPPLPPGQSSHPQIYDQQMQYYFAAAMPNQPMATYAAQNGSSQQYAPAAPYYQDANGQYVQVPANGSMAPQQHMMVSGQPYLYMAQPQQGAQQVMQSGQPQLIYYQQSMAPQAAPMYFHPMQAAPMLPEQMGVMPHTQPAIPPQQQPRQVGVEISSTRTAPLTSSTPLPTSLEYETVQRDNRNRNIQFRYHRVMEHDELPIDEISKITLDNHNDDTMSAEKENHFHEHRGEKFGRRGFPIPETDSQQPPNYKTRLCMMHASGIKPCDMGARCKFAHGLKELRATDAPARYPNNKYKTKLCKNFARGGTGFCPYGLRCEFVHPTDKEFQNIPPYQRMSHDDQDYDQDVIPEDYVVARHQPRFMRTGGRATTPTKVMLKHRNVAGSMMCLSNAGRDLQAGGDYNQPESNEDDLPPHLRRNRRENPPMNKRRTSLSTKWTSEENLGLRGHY

[5] = biological target: Tyrosine-protein phosphatase non-receptor type 7 (Homo sapiens, UniProt P35236); assay: HePTP tyrosine phosphatase activity blockers – biochemical, absorbance, leukemia target, primary screen (AID 521); type: functional
[6] = biological target: Mitogen-activated protein kinase 10 (Homo sapiens, UniProt P53779); assay: Dose response biochemical screening assay for inhibitors of c-Jun N-Terminal Kinase 3 (JNK3). [Related pubchem assays: 746 ]
[7] = biological target: Peroxisome proliferator-activated receptor gamma/Nuclear receptor coactivator 2 (Homo sapiens, UniProt P37231); assay: (§1) TR-FRET dose response biochemical High Throughput Screening assay for agonists of the steroid receptor coactivator 2 (SRC-2) recruitment by the peroxisome proliferator-activated receptor gamma (PPAR gamma): non-selective agonists. [Related pubchem assays: 1297, 1032 ]; type: functional
[8] = biological target: Peroxisome proliferator-activated receptor gamma/Nuclear receptor coactivator 3 (Homo sapiens, UniProt P37231); assay: as §1, with “3 (SRC-3)” for “2 (SRC-2)”, “1301 (Confirmation screen.), 1048 (Primary screen.)]” for “1297, 1032 ]”; type: functional
Sequence of Peroxisome proliferator-activated receptor gamma/Nuclear receptor coactivator 3 (P37231 whole entry): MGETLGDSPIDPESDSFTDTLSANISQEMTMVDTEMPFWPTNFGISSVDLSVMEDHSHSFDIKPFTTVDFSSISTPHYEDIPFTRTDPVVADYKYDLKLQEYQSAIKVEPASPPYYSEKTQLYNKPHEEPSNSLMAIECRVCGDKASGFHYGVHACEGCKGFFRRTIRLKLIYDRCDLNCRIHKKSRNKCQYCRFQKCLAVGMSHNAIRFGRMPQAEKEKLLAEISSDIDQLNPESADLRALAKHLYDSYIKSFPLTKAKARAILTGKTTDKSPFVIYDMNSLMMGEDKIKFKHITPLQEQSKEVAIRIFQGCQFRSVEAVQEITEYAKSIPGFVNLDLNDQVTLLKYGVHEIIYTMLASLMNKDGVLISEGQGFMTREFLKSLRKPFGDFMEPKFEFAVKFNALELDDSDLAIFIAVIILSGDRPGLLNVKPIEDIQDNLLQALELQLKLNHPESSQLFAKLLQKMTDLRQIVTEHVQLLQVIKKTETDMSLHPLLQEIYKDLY
Sequence of Peroxisome proliferator-activated receptor gamma/Nuclear receptor coactivator 3 (Q9Y6Q9 whole entry, further chain): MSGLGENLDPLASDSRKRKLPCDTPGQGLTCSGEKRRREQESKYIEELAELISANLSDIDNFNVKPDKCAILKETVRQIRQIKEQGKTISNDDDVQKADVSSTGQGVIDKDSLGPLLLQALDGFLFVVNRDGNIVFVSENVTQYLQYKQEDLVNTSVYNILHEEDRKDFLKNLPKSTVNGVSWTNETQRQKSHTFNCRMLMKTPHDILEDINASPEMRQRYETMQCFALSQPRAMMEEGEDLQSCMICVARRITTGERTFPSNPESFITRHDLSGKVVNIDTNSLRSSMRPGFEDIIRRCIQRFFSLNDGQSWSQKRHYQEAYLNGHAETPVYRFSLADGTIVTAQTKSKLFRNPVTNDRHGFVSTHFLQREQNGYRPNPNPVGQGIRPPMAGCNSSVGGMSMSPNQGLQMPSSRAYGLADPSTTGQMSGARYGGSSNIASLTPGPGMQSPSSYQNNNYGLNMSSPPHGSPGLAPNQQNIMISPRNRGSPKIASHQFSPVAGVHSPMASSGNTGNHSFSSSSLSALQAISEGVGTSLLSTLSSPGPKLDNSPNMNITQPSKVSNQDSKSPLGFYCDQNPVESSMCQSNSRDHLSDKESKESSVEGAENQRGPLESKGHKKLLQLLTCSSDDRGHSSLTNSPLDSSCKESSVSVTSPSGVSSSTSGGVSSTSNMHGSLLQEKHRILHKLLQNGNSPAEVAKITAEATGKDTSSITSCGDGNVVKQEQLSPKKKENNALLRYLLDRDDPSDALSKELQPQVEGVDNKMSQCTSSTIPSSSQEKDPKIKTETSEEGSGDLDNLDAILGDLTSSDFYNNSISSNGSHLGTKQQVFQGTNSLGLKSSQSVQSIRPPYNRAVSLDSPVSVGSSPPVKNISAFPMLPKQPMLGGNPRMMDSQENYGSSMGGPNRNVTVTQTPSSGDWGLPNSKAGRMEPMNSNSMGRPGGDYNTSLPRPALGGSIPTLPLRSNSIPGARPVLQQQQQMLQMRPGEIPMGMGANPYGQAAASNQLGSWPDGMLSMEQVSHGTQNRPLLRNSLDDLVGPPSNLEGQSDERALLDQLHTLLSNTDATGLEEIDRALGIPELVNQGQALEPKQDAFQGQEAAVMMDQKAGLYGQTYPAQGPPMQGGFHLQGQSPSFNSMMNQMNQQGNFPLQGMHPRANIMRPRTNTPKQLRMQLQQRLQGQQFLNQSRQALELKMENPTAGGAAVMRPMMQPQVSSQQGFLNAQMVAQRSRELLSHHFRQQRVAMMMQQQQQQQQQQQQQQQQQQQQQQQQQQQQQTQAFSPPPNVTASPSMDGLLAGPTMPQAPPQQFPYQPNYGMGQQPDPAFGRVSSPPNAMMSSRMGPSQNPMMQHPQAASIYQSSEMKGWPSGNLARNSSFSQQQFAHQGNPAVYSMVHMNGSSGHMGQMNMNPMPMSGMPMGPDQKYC

[9] = biological target: Peroxisome proliferator-activated receptor gamma/Nuclear receptor coactivator 1 (Homo sapiens, UniProt P37231); assay: as §1, with “1 (SRC-1)” for “2 (SRC-2)”, “assays (depositor defined):AID1300, AID1808, AID504735, AID631]” for “assays: 1297, 1032 ]”; type: protein assay
Sequence of Peroxisome proliferator-activated receptor gamma/Nuclear receptor coactivator 1 (P37231 whole entry): as the sequence (P37231 whole entry) above
Sequence of Peroxisome proliferator-activated receptor gamma/Nuclear receptor coactivator 1 (Q15788 whole entry, further chain): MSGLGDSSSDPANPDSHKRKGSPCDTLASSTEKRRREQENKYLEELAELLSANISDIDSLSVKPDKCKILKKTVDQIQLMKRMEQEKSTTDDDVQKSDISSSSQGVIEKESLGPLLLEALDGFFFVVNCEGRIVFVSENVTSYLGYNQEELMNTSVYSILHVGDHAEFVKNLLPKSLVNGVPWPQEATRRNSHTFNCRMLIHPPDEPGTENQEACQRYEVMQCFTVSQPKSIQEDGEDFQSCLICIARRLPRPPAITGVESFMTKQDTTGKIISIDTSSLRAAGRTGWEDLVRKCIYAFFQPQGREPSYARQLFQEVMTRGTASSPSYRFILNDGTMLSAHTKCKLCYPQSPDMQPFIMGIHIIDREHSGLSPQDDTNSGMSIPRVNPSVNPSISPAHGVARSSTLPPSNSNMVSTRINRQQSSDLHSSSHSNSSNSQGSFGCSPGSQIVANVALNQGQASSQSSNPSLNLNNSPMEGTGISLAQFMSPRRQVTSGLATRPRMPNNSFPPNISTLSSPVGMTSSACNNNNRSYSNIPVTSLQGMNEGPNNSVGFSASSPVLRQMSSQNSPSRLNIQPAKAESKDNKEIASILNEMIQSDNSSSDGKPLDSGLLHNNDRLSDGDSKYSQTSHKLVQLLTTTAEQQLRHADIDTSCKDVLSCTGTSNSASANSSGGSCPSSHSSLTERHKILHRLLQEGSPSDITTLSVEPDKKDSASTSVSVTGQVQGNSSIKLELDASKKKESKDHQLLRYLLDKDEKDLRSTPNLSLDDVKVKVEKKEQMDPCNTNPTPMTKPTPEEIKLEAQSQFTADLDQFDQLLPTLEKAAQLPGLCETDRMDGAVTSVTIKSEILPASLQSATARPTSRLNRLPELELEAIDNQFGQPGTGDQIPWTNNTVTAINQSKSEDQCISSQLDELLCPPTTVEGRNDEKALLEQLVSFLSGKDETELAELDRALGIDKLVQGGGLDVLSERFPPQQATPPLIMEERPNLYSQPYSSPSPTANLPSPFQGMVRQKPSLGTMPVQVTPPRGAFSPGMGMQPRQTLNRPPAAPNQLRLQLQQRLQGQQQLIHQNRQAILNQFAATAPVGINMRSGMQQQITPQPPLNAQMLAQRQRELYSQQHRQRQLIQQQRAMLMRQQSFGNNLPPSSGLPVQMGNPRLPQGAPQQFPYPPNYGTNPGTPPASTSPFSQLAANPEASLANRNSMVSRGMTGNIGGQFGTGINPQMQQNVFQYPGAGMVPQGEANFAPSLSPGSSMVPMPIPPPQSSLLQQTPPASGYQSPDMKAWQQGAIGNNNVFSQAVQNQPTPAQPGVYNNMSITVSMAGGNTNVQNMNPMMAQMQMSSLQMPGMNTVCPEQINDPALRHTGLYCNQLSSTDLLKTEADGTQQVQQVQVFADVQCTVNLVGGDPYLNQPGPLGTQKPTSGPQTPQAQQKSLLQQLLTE

For CC1=NN(c2ccc(Cl)c(C(=O)O)c2)C(=O)/C1=C\c1ccc(-c2ccc(C(=O)O)cc2)o1, the IC50 [1] was 94.1 µM (active), the AC50 [2] was 0.484 µM (active) and the IC50 (Genome polyprotein) was 19.4 µM (active). For the same compound, the EC50 (Protein RecA) was 0.4 µM (active) and the IC50 (Aminopeptidase N) was 2.41 µM (active).
With Cc1cc(C(=O)O)ccc1-n1c(C)ccc1C the IC50 (NS3) was 6.25 µM (inactive), the EC50 [3] was 5.94 µM (active) and the IC50 (Estrogen receptor) was 7.53 µM (active). The EC50 [4] was 8.59 µM (active) and the IC50 [5] was 0.76 µM (active).
In the case of CC(=O)c1sc(Nc2ccccn2)nc1C, the IC50 [6] is reported as 40.3 µM (not active), the EC50 [7] is reported as > 79.4 µM (not active) and the EC50 [8] is reported as > 79.4 µM (not active). For the same compound, the EC50 [9] was > 79.4 µM (inactive).
